Data taken from ChEMBL document CHEMBL1139500, “The next generation of phosphodiesterase inhibitors: structural clues to ligand and substrate selectivity of phosphodiesterases” (J Med Chem, 2005).
One block for each molecule: values may come before it.

Tests used:
Phosphodiesterase 7 [1] = molecular target: T1, Phosphodiesterase 7 (Homo sapiens, UniProt Q13946+Q9NP56); test: (§1) Inhibition of human phosphodiesterase 7; assay type: protein assay
[2] = molecular target: cGMP-dependent 3',5'-cyclic phosphodiesterase (Homo sapiens, UniProt O00408); test: Inhibition of human phosphodiesterase 2
cGMP-dependent 3',5'-cyclic phosphodiesterase, sequence (O00408 whole entry): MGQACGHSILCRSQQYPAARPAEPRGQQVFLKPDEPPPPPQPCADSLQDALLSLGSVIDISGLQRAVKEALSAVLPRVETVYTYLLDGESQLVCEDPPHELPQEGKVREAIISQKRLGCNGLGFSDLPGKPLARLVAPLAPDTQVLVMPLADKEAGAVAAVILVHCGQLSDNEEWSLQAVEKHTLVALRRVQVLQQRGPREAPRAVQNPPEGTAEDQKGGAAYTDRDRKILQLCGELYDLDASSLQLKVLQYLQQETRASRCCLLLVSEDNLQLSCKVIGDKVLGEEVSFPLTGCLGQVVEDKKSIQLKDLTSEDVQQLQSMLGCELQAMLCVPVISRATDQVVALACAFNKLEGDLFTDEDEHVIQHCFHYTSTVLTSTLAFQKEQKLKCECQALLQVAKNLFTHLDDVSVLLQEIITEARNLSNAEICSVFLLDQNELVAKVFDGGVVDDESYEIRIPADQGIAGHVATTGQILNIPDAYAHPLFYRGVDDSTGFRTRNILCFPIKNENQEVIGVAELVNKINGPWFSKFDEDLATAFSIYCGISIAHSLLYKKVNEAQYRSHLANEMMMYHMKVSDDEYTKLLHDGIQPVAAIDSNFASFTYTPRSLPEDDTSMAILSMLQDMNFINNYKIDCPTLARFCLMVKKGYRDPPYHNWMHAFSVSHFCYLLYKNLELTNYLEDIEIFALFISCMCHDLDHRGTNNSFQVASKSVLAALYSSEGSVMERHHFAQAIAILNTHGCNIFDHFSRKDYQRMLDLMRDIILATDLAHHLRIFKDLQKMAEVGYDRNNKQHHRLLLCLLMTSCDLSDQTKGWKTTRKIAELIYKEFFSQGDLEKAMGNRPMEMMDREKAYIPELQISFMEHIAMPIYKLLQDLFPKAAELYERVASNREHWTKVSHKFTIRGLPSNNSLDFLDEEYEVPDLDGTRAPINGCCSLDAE

Phosphodiesterase 1 = Phosphodiesterase 1 (Homo sapiens, UniProt P54750+Q01064+Q14123); test: Inhibition of human phosphodiesterase 1; assay type: protein assay
[3] = molecular target: High affinity cGMP-specific 3',5'-cyclic phosphodiesterase 9A (Homo sapiens, UniProt O76083); test: Inhibition of human phosphodiesterase 9
High affinity cGMP-specific 3',5'-cyclic phosphodiesterase 9A, sequence (O76083 whole entry): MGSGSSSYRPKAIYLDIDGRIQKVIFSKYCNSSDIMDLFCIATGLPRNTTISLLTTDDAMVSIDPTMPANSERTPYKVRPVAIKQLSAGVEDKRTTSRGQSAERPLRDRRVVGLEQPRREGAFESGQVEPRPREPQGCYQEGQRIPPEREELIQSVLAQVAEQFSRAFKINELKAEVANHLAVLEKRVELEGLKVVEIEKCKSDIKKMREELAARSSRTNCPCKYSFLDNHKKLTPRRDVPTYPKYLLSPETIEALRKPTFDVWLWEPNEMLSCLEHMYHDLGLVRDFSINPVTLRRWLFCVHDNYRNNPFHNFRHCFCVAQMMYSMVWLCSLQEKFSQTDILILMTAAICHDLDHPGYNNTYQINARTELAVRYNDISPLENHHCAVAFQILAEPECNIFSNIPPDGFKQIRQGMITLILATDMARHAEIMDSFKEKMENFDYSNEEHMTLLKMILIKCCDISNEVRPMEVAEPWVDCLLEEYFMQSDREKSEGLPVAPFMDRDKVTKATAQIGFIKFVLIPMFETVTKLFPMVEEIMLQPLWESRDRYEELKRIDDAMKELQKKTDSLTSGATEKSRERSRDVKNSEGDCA

[4] = molecular target: cAMP and cAMP-inhibited cGMP 3',5'-cyclic phosphodiesterase 10A (Homo sapiens, UniProt Q9Y233); test: Inhibitory concentration value against phosphodiesterase 10
cAMP and cAMP-inhibited cGMP 3',5'-cyclic phosphodiesterase 10A, sequence (Q9Y233 whole entry): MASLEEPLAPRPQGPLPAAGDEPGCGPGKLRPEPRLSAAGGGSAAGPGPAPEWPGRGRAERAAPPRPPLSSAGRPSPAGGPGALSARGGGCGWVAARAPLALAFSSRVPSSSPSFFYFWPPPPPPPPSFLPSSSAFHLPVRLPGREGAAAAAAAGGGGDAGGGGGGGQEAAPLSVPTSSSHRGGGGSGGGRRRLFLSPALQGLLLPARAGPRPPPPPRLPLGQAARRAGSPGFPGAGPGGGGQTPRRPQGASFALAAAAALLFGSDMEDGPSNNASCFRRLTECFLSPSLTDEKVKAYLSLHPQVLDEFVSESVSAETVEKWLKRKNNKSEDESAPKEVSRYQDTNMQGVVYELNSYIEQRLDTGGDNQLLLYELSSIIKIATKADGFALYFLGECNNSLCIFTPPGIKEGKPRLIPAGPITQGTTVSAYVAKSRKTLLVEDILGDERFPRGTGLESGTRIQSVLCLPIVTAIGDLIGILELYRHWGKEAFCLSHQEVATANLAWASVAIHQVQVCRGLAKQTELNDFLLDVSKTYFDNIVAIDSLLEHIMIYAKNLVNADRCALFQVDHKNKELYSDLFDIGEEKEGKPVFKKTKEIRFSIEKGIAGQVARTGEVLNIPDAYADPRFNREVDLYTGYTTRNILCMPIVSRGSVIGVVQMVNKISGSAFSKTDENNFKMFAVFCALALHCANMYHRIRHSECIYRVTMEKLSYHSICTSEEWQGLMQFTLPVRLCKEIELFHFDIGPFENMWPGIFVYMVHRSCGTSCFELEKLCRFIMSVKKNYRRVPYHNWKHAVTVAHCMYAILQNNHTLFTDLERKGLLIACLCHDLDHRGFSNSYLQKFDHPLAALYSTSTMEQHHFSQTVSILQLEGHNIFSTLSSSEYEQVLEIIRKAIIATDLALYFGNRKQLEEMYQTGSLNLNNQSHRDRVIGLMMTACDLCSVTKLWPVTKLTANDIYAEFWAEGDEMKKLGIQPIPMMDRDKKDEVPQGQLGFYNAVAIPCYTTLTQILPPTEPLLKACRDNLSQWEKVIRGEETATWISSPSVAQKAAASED

Phosphodiesterase 6 = test: Inhibition of human phosphodiesterase 6; assay type: protein assay
Phosphodiesterase 7 [5] = molecular target: T1, Phosphodiesterase 7; test: as §1; assay type: protein assay; remark: listed apart in the source
[6] = Inhibitory activity against phosphodiesterase 8

T1 sequence (Q13946 whole entry, looked up): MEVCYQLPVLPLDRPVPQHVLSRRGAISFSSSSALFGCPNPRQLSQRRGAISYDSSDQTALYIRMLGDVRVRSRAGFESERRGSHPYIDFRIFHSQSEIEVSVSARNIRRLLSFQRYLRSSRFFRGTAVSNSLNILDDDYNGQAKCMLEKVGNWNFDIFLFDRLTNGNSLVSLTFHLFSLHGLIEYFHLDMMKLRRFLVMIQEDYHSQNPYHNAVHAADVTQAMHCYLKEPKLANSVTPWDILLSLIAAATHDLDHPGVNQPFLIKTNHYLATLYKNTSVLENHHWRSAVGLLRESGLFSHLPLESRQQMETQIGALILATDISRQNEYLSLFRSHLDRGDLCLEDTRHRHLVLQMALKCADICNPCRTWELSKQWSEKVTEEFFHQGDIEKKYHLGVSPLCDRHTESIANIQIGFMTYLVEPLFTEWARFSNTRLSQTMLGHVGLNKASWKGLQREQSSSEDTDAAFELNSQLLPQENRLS
T1 sequence (Q9NP56 whole entry, looked up): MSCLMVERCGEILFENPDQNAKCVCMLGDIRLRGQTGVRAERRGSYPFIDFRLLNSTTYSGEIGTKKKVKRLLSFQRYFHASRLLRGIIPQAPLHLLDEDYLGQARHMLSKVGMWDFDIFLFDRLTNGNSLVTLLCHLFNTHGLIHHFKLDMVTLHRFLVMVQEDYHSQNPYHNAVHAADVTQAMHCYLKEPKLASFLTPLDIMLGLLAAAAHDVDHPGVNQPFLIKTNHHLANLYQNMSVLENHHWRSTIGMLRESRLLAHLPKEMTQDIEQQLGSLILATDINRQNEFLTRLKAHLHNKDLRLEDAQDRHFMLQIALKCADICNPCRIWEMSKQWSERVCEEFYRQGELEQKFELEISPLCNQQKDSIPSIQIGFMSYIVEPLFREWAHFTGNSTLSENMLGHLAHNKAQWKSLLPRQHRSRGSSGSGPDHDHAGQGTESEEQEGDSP

SMILES: Cn1nc(-c2ccc(Cl)cc2)s/c1=N\C1CCCCC1
- Inhibition (Phosphodiesterase 7 [1]): 1.5 µM

SMILES: CCCCCC[C@@H]([C@@H](C)O)n1cnc2c(N)ncnc21 [EHNA]
- Ki [2]: 1000 nM

SMILES: CCCOc1ccccc1-c1nc2[nH]nnc2c(=O)[nH]1 [ZAPRINAST]
- Ki [3]: 35 µM
- IC50 [4]: 22 µM
- Ki (Phosphodiesterase 6): 400 nM

SMILES: Cc1nc(N)c2ccc(-c3nn(C)/c(=N/C4CCCCC4)s3)cc2n1
- Inhibition (Phosphodiesterase 7 [1]): 3.9 µM

Results, then the molecule that gave them:

- Ki (Phosphodiesterase 1): 14 µM
SMILES: CCOC(=O)C1=C[C@]2(CC)CCCN3CCc4c(n1c1ccccc41)[C@@H]32 [VINPOCETINE]

- Ki (Phosphodiesterase 7 [5]): 4 µM
SMILES: CC(C)Cn1c(=O)n(C)c(=O)c2nc[nH]c21 [ISOBUTYLMETHYLXANTHINE]

- Ki (Phosphodiesterase 7 [5]): 0.6 µM
- Ki [6]: 9 µM
- Ki (Phosphodiesterase 6): 125 nM
SMILES: OCCN(CCO)c1nc(N2CCCCC2)c2nc(N(CCO)CCO)nc(N3CCCCC3)c2n1 [DIPYRIDAMOLE]
